{"source": "paper PMC4783701", "about": "(Scientific Reports, 2016)", "key": {"[1]": {"assay": "MTT cytotoxicity assay", "assay_type": "cell-based, canine", "settings": "dog, MDCK cells", "experimental": "Selectivity index (SI) of each compound was defined as the ratio of CC50 over IC50. CC50 value was determined with MTT assay according to the manufacturer’s protocol (Invitrogen), while IC50 data was obtained by plaque reduction assay. Both assays were done in MDCK cells and values were calculated using Sigma plot 12.0 (SPSS)."}, "[2]": {"target": "PAN endonuclease (N-terminal domain of the PA subunit) (Influenza A virus, UniProt P03433)", "assay_type": "biochemical"}, "[3]": {"tested_on": "multiple subtypes of influenza virus, including H1N1, H3N2, H5N1, H7N7, H7N9, and H9N2", "assay_type": "cell-based, influenza A virus", "settings": "all tested subtypes; for inhibition of viral replication: serial-diluted compound"}, "[4]": {"tested_on": "influenza H1N1 virus", "assay_type": "cell-based, influenza A virus"}, "[5]": {"target": "PAN protein (Influenza A virus, UniProt P03433)", "assay": "biochemical", "assay_type": "binding"}, "[6]": {"tested_on": "H3N2 virus", "assay_type": "cell-based, influenza A virus", "settings": "MDCK, MOI 0.002, 24 h post-infection"}, "[7]": {"tested_on": "influenza H1N1 virus", "assay_type": "cell-based, influenza A virus", "remark": "listed apart in the source"}, "[8]": {"tested_on": "H7N7 virus", "assay": "microbe, parasite or virus in culture", "assay_type": "cell-based", "settings": "Influenza A virus, H7N7, MDCK, 24 h"}, "[9]": {"tested_on": "influenza H1N1 virus", "assay": "microbe, parasite or virus in culture", "assay_type": "cell-based, influenza A virus", "settings": "for IC50: Influenza A virus, H1N1, MDCK"}, "[10]": {"assay": "Solubility in PBS", "assay_type": "physicochemical", "settings": "read-out: solubility limitation"}, "[11]": {"tested_on": "H5N1 virus", "assay": "microbe, parasite or virus in culture", "assay_type": "cell-based", "settings": "Influenza A virus, H5N1, MDCK, 24 h"}, "[12]": {"target": "influenza polymerase activity (PB1, PB2, PA, NP) (Influenza A virus, UniProt P03433)", "assay_type": "cell-based"}, "[13]": {"tested_on": "H9N2 virus", "assay": "microbe, parasite or virus in culture", "assay_type": "cell-based", "settings": "Influenza A virus, H9N2, MDCK, 24 h"}, "[14]": {"tested_on": "H7N9 virus", "assay_type": "cell-based, influenza A virus", "settings": "MDCK, MOI 0.002, 24 h post-infection"}, "[15]": {"tested_on": "H1N1 virus", "assay": "microbe, parasite or virus in culture", "assay_type": "cell-based", "settings": "Influenza A virus, H1N1, MDCK, 24 h"}}, "note": "Several values for one entry are separate records, joined by “and”; a condition that tells them apart may be missing. Identical values can stand only once.", "data": [{"smiles": "O=C1N=c2ccccc2=C1NNC1=NC(=O)/C(=C2/C(=O)Nc3ccccc32)S1", "note": "[ANA-0, (5Z)-2-[2-(2-oxoindol-3-yl)hydrazinyl]-5-(2-oxo-1H-indol-3-ylidene)-1,3-thiazol-4-one]", "values": [{"measurement": "CC50", "setting": "[1]", "value": "> 400000", "unit": "nM"}, {"measurement": "IC50 compared with that of DPBA", "setting": "[2]", "value": "lower IC50s"}, {"measurement": "suppression of virus replication", "setting": "[3]; 20 μM", "value": "more than 3 logs"}, {"measurement": "inhibition of viral replication", "setting": "[3]", "value": "inhibited viral replication of all tested subtypes of influenza virus in a dose-dependent manner"}, {"measurement": "antiviral efficacy when added during virus absorption (-1 h) and then removed", "setting": "[4]", "value": "did not exert antiviral efficacy"}, {"measurement": "intracellular and supernatant vRNA when added at 1 h p.i. and maintained", "setting": "[4]", "value": "significant decrease of viral RNAs"}, {"measurement": "intracellular viral mRNA production", "setting": "[4]", "value": "reduced the viral mRNA production"}, {"measurement": "vRNAs in cell lysates", "setting": "[4]", "value": "subsequent decrease of vRNAs in cell lysates"}, {"measurement": "Kd", "setting": "[5]", "value": 1100, "unit": "nM"}, {"measurement": "concentration required for similar inhibition relative to H1N1 and H9N2", "setting": "[6]", "value": "5 fold and > 5 fold"}, {"measurement": "reduction in supernatant viral titer", "setting": "[7]", "value": "2–3 log"}, {"measurement": "IC50", "setting": "[8]", "value": "~2500", "unit": "nM"}, {"measurement": "Selectivity Index (CC50/IC50)", "setting": "[9]", "value": "> 500"}, {"measurement": "IC50", "setting": "[9]", "value": "800 ± 100", "unit": "nM"}, {"measurement": "solubility", "setting": "[10]", "value": 1000, "unit": "µg/mL"}, {"measurement": "IC50", "setting": "[11]", "value": "~2500", "unit": "nM"}, {"measurement": "luciferase activity (viral polymerase function)", "setting": "[12]", "value": "dose-dependent suppression of luciferase activity"}, {"measurement": "IC50", "setting": "[13]", "value": "< 1000", "unit": "nM"}, {"measurement": "concentration required for similar inhibition relative to H1N1 and H9N2", "setting": "[14]", "value": "5 fold and > 5 fold"}, {"measurement": "IC50", "setting": "[15]", "value": "< 1000", "unit": "nM"}]}, {"smiles": "O=C([O-])Cc1c[nH]c2ccc(O)cc12.[K+]", "note": "[Compound 5106705]", "values": [{"measurement": "PAN Endonuclease Inhibition Postive", "setting": "[2]", "value": "Y"}]}, {"smiles": "O=C1C=CC(=NS(=O)(=O)c2ccc(Cl)cc2)C=C1Cl", "note": "[Compound 5158517]", "values": [{"measurement": "PAN Endonuclease Inhibition Postive", "setting": "[2]", "value": "Y"}]}, {"smiles": "O=C1C=CC(=O)C(C(=CNCc2ccccc2)[N+](=O)[O-])=C1", "note": "[Compound 5261378]", "values": [{"measurement": "PAN Endonuclease Inhibition Postive", "setting": "[2]", "value": "Y"}]}, {"smiles": "Nc1c(C(=O)O)cc(O)c2c1C(=O)c1ccccc1C2=O", "note": "[Compound 5302115]", "values": [{"measurement": "PAN Endonuclease Inhibition Postive", "setting": "[2]", "value": "Y"}, {"measurement": "Anti-H1N1 Positive", "setting": "[9]", "value": "Y"}]}, {"smiles": "CN(C)c1ccc(C=C2SC(=NN=C3C(=O)Nc4ccccc43)NC2=O)cc1", "note": "[Compound 5404571]", "values": [{"measurement": "PAN Endonuclease Inhibition Postive", "setting": "[2]", "value": "Y"}, {"measurement": "Anti-H1N1 Positive", "setting": "[9]", "value": "Y"}]}, {"smiles": "Oc1c(Br)cc(C=NNc2nc3ccccc3s2)c(O)c1Br", "note": "[Compound 5482349]", "values": [{"measurement": "PAN Endonuclease Inhibition Postive", "setting": "[2]", "value": "Y"}, {"measurement": "Anti-H1N1 Positive", "setting": "[9]", "value": "Y"}]}, {"smiles": "C=CCN1C(=O)C(=Cc2cccn2-c2cccc([N+](=O)[O-])c2)C(=O)NC1=S", "note": "[Compound 5987504]", "values": [{"measurement": "PAN Endonuclease Inhibition Postive", "setting": "[2]", "value": "Y"}, {"measurement": "Anti-H1N1 Positive", "setting": "[9]", "value": "Y"}]}, {"smiles": "O=C1C(=O)c2ccccc2C(Cl)=C1Cl", "note": "[Compound 6304348]", "values": [{"measurement": "PAN Endonuclease Inhibition Postive", "setting": "[2]", "value": "Y"}]}, {"smiles": "Nc1c(C(=O)O)cc(O)c2c1C(=O)c1ccccc1C2=O", "note": "[PA-24]", "values": [{"measurement": "CC50", "setting": "[1]", "value": "180000 ± 15000", "unit": "nM"}, {"measurement": "Selectivity Index (CC50/IC50)", "setting": "[9]", "value": 129}, {"measurement": "plaque number reduction", "setting": "[9]", "value": "reduce the plaque number in a dose-dependent manner"}, {"measurement": "IC50", "setting": "[9]", "value": "1400 ± 300", "unit": "nM"}]}, {"smiles": "CN(C)c1ccc(/C=C2\\S/C(=N\\N=C3\\C(=O)Nc4ccccc43)NC2=O)cc1", "note": "[PA-30]", "values": [{"measurement": "CC50", "setting": "[1]", "value": "> 300000", "unit": "nM"}, {"measurement": "IC50 compared with that of DPBA", "setting": "[2]", "value": "lower IC50s"}, {"measurement": "inhibition of viral replication", "setting": "[3]", "value": "inhibited viral replication of all tested subtypes of influenza virus in a dose-dependent manner"}, {"measurement": "Kd", "setting": "[5]", "value": 1300, "unit": "nM"}, {"measurement": "reduction in supernatant viral titer", "setting": "[7]", "value": "2–3 log"}, {"measurement": "Selectivity Index (CC50/IC50)", "setting": "[9]", "value": "> 200"}, {"measurement": "plaque number reduction", "setting": "[9]", "value": "reduce the plaque number in a dose-dependent manner"}, {"measurement": "IC50", "setting": "[9]", "value": "1500 ± 200", "unit": "nM"}]}, {"smiles": "Oc1c(Br)cc(/C=N/Nc2nc3ccccc3s2)c(O)c1Br", "note": "[PA-35]", "values": [{"measurement": "CC50", "setting": "[1]", "value": "75000 ± 23000", "unit": "nM"}, {"measurement": "Selectivity Index (CC50/IC50)", "setting": "[9]", "value": 58}, {"measurement": "plaque number reduction", "setting": "[9]", "value": "reduce the plaque number in a dose-dependent manner"}, {"measurement": "IC50", "setting": "[9]", "value": "1300 ± 500", "unit": "nM"}]}, {"smiles": "C=CCN1C(=O)/C(=C\\c2cccn2-c2ccc([N+](=O)[O-])cc2)C(=O)NC1=S", "note": "[PA-48]", "values": [{"measurement": "CC50", "setting": "[1]", "value": "20000 ± 5000", "unit": "nM"}, {"measurement": "Selectivity Index (CC50/IC50)", "setting": "[9]", "value": 10}, {"measurement": "plaque number reduction", "setting": "[9]", "value": "reduce the plaque number in a dose-dependent manner"}, {"measurement": "IC50", "setting": "[9]", "value": "2000 ± 100", "unit": "nM"}]}, {"smiles": "CC(=O)N[C@H]1[C@H]([C@H](O)[C@H](O)CO)OC(C(=O)O)=C[C@@H]1N=C(N)N", "note": "[zanamivir, reference compound]", "values": [{"measurement": "intracellular and supernatant vRNA when added at 1 h p.i. and maintained", "setting": "[4]", "value": "reduced the vRNA in the supernatant but not inside the cells"}]}]}
